US20190315823A1, “SMALL CATIONIC ANTI-BIOFILM AND IDR PEPTIDES” (priority 2013, published 2019)
Ends that are not written are not given here.

How the values were obtained:
[1] = tested on: methicillin resistant Staphylococcus aureus (MRSA) biofilm; conditions: approximate peptide concentration […] (around 3 μg/ml); compared to untreated samples
How it was run: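 Peptide was present from inoculation onward, with bacteria seeded at 1/100 from overnight cultures into BM2 biofilm medium or Luria Broth. Crystal violet staining of surface-attached cells (A595) quantified biofilm reduction at 22–46 h. K. pneumoniae was additionally screened in a real-time Bioflux flow device for some peptides.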

[2] = tested on: human peripheral blood mononuclear cells (MCP-1); test: SPOT-synthesized derivative screen: production of chemokine MCP-1; assay type: cell-based; conditions: Table 12, No LPS, human PBMC, peptide at ~18-24 μM; for MCP1: background subtracted 139 (HH2 derivatives), 170 (1018 derivatives), 242 (1002 and hybrid peptides) pg/ml
How it was run: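 MCP-1 was quantified by capture ELISA in cleared culture supernatants of treated human peripheral blood mononuclear cells. Cells came from heparinized volunteer blood via Ficoll gradient and were seeded at 0.75 to 1×10^6 cells/ml (37 °C, 5% CO2).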

[3] = tested on: LPS-stimulated human peripheral blood mononuclear cells (IL1-β); assay type: cell-based; conditions: Table 12, cells stimulated with 10 ng/ml LPS; for IL1β Production: LPS alone 1313 (HH2 derivatives), 1927 (1018 derivatives), 2455 (1002 and hybrid peptides) pg/ml

1018-I1: single substituted 1018 peptide (IRLIVAVRIWRR-NH2) [Peptide 1018-I1]
% Biofilm inhibition [1]: 56%
Fold increase in MCP1 cf. untreated cells [2]: 18
MCP1 [2]: 2873 pg/mL
Fold change in IL1β relative to no peptide LPS stimulated cells [3]: 0.11
IL1β Production [3]: 138 pg/mL

1002-L4: single substituted 1002 peptide (VQRLLIVWRIRK-NH2) [Peptide 1002-L4]
% Biofilm inhibition [1]: 33%
Fold increase in MCP1 cf. untreated cells [2]: 3.0
MCP1 [2]: 493.6 pg/mL
Fold change in IL1β relative to no peptide LPS stimulated cells [3]: 0.12
IL1β Production [3]: 283 pg/mL

1018-I5: single substituted 1018 peptide (VRLIIAVRIWRR-NH2) [Peptide 1018-I5]
% Biofilm inhibition [1]: 60%
Fold increase in MCP1 cf. untreated cells [2]: 13
MCP1 [2]: 2103 pg/mL
Fold change in IL1β relative to no peptide LPS stimulated cells [3]: 0.10
IL1β Production [3]: 127 pg/mL

1002-G6: single substituted 1002 peptide (VQRWLGVWRIRK-NH2) [Peptide 1002-G6]
% Biofilm inhibition [1]: 26%
Fold increase in MCP1 cf. untreated cells [2]: 0.9
MCP1 [2]: -36.2 pg/mL
Fold change in IL1β relative to no peptide LPS stimulated cells [3]: 0.45
IL1β Production [3]: 1098 pg/mL

HH2-I9: single substituted HH2 peptide (VQLRIRVAIIRA-NH2)
% Biofilm inhibition [1]: 73%
Fold increase in MCP1 cf. untreated cells [2]: 50
MCP1 [2]: 8276 pg/mL
Fold change in IL1β relative to no peptide LPS stimulated cells [3]: 0.75
IL1β Production [3]: 980 pg/mL

1002-R2: single substituted 1002 peptide (VRRWLIVWRIRK-NH2) [Peptide 1002-R2]
% Biofilm inhibition [1]: 60%
Fold increase in MCP1 cf. untreated cells [2]: 4.5
MCP1 [2]: 840.0 pg/mL
Fold change in IL1β relative to no peptide LPS stimulated cells [3]: 0.05
IL1β Production [3]: 127 pg/mL

HH2-I11: single substituted HH2 peptide (VQLRIRVAVIIA-NH2)
% Biofilm inhibition [1]: 55%
Fold increase in MCP1 cf. untreated cells [2]: 60
MCP1 [2]: 9977 pg/mL
Fold change in IL1β relative to no peptide LPS stimulated cells [3]: 1.07
IL1β Production [3]: 1402 pg/mL

1002-V11: single substituted 1002 peptide (VQRWLIVWRIVK-NH2) [Peptide 1002-V11]
% Biofilm inhibition [1]: 68%
Fold increase in MCP1 cf. untreated cells [2]: 3.2
MCP1 [2]: 541.2 pg/mL
Fold change in IL1β relative to no peptide LPS stimulated cells [3]: 0.05
IL1β Production [3]: 127 pg/mL

1018-Q11: single substituted 1018 peptide (VRLIVAVRIWQR-NH2) [Peptide 1018-Q11]
% Biofilm inhibition [1]: 51%
Fold increase in MCP1 cf. untreated cells [2]: 11
MCP1 [2]: 1773 pg/mL
Fold change in IL1β relative to no peptide LPS stimulated cells [3]: 1.24
IL1β Production [3]: 1625 pg/mL

1002-A10: single substituted 1002 peptide (VQRWLIVWRARK-NH2) [Peptide 1002-A10]
% Biofilm inhibition [1]: 45%
Fold increase in MCP1 cf. untreated cells [2]: 2.0
MCP1 [2]: 245.4 pg/mL
Fold change in IL1β relative to no peptide LPS stimulated cells [3]: 0.05
IL1β Production [3]: 127 pg/mL

1018-K3: single substituted 1018 peptide (VRKIVAVRIWRR-NH2) [Peptide 1018-K3]
% Biofilm inhibition [1]: 15%
Fold increase in MCP1 cf. untreated cells [2]: 49
MCP1 [2]: 8203 pg/mL
Fold change in IL1β relative to no peptide LPS stimulated cells [3]: 1.13
IL1β Production [3]: 1489 pg/mL

1002-W12: single substituted 1002 peptide (VQRWLIVWRIRW-NH2) [Peptide 1002-W12]
% Biofilm inhibition [1]: 71%
Fold increase in MCP1 cf. untreated cells [2]: 2.7
MCP1 [2]: 412.5 pg/mL
Fold change in IL1β relative to no peptide LPS stimulated cells [3]: 0.05
IL1β Production [3]: 127 pg/mL

HH2-V5: single substituted HH2 peptide (VQLRVRVAVIRA-NH2)
% Biofilm inhibition [1]: 50%
Fold increase in MCP1 cf. untreated cells [2]: 9.3
MCP1 [2]: 1409 pg/mL
Fold change in IL1β relative to no peptide LPS stimulated cells [3]: 1.29
IL1β Production [3]: 1696 pg/mL

1018-A3: single substituted 1018 peptide (VRAIVAVRIWRR-NH2) [Peptide 1018-A3]
% Biofilm inhibition [1]: 49%
Fold increase in MCP1 cf. untreated cells [2]: 0.4
MCP1 [2]: -110 pg/mL
Fold change in IL1β relative to no peptide LPS stimulated cells [3]: 0.57
IL1β Production [3]: 748 pg/mL

HH2-W5: single substituted HH2 peptide (VQLRWRVAVIRA-NH2)
% Biofilm inhibition [1]: 63%
Fold increase in MCP1 cf. untreated cells [2]: 14
MCP1 [2]: 2198 pg/mL
Fold change in IL1β relative to no peptide LPS stimulated cells [3]: 0.77
IL1β Production [3]: 1007 pg/mL

1018-Q6: single substituted 1018 peptide (VRLIVQVRIWRR-NH2) [Peptide 1018-Q6]
% Biofilm inhibition [1]: 55%
Fold increase in MCP1 cf. untreated cells [2]: 0.7
MCP1 [2]: -54 pg/mL
Fold change in IL1β relative to no peptide LPS stimulated cells [3]: 0.14
IL1β Production [3]: 186 pg/mL

HH2-Q4: single substituted HH2 peptide (VQLQIRVAVIRA-NH2)
% Biofilm inhibition [1]: 45%
Fold increase in MCP1 cf. untreated cells [2]: 2.4
MCP1 [2]: 246 pg/mL
Fold change in IL1β relative to no peptide LPS stimulated cells [3]: 0.62
IL1β Production [3]: 817 pg/mL

1002-Q7: single substituted 1002 peptide (VQRWLIQWRIRK-NH2) [Peptide 1002-Q7]
% Biofilm inhibition [1]: 45%
Fold increase in MCP1 cf. untreated cells [2]: 0.9
MCP1 [2]: -36.2 pg/mL
Fold change in IL1β relative to no peptide LPS stimulated cells [3]: 0.06
IL1β Production [3]: 138 pg/mL

HH2-Q5: single substituted HH2 peptide (VQLRQRVAVIRA-NH2)
% Biofilm inhibition [1]: 25%
Fold increase in MCP1 cf. untreated cells [2]: 4.5
MCP1 [2]: 603 pg/mL
Fold change in IL1β relative to no peptide LPS stimulated cells [3]: 0.98
IL1β Production [3]: 1284 pg/mL

1018-G7: single substituted 1018 peptide (VRLIVAGRIWRR-NH2) [Peptide 1018-G7]
% Biofilm inhibition [1]: 47%
Fold increase in MCP1 cf. untreated cells [2]: 25
MCP1 [2]: 4098 pg/mL
Fold change in IL1β relative to no peptide LPS stimulated cells [3]: 1.23
IL1β Production [3]: 1610 pg/mL

1002-Q12: single substituted 1002 peptide (VQRWLIVWRIRQ-NH2) [Peptide 1002-Q12]
% Biofilm inhibition [1]: 65%
Fold increase in MCP1 cf. untreated cells [2]: 6.1
MCP1 [2]: 1225.7 pg/mL
Fold change in IL1β relative to no peptide LPS stimulated cells [3]: 0.05
IL1β Production [3]: 127 pg/mL

1002-I5: single substituted 1002 peptide (VQRWIIVWRIRK-NH2) [Peptide 1002-I5]
% Biofilm inhibition [1]: 84%
Fold increase in MCP1 cf. untreated cells [2]: 24.2
MCP1 [2]: 5633.1 pg/mL
Fold change in IL1β relative to no peptide LPS stimulated cells [3]: 0.08
IL1β Production [3]: 186 pg/mL

1002-V6: single substituted 1002 peptide (VQRWLVVWRIRK-NH2) [Peptide 1002-V6]
% Biofilm inhibition [1]: 71%
Fold increase in MCP1 cf. untreated cells [2]: 1.5
MCP1 [2]: 113.5 pg/mL
Fold change in IL1β relative to no peptide LPS stimulated cells [3]: 0.05
IL1β Production [3]: 127 pg/mL

1002-G4: single substituted 1002 peptide (VQRGLIVWRIRK-NH2) [Peptide 1002-G4]
% Biofilm inhibition [1]: 42%
Fold increase in MCP1 cf. untreated cells [2]: 1.1
MCP1 [2]: 33.0 pg/mL
Fold change in IL1β relative to no peptide LPS stimulated cells [3]: 0.29
IL1β Production [3]: 723 pg/mL

HH2C-HH2N: derivative of HH2, 1002 and 1018 made by SPOT synthesis (VAVIRAVQLRIR-NH2)
% Biofilm inhibition [1]: 61%
Fold increase in MCP1 cf. untreated cells [2]: 2.0
MCP1 [2]: 239.0 pg/mL
Fold change in IL1β relative to no peptide LPS stimulated cells [3]: 0.31
IL1β Production [3]: 769 pg/mL
